In publication PMC8799717, “Pharmacological targeting PIKfyve and tubulin as an effective treatment strategy for double-hit lymphoma” (Cell Death Discovery, 2022):

How the values were obtained:
RAF1 = RAF1 (Homo sapiens, UniProt P04049); assay: KINOMEscan competition binding, single dose […]; conditions: read-out: % of control at 1 μM
FGFR2 = FGFR2 (Homo sapiens, UniProt P21802); assay: biochemical; parameters: KINOMEscan active-site-directed competition binding panel, 468 kinases, percent of DMSO control at 1 uM; conditions: KINOMEscan binding, percent of DMSO control; read-out: Ctrl%
ERK5 = biological target: T1, ERK5 (Homo sapiens, UniProt Q13164); assay: biochemical; parameters: KINOMEscan active-site-directed competition binding panel, 468 kinases, percent of DMSO control at 1 uM; conditions: KINOMEscan binding, percent of DMSO control; read-out: Ctrl%
T1 construct: gene MAPK7
T1 sequence (Q13164 whole entry): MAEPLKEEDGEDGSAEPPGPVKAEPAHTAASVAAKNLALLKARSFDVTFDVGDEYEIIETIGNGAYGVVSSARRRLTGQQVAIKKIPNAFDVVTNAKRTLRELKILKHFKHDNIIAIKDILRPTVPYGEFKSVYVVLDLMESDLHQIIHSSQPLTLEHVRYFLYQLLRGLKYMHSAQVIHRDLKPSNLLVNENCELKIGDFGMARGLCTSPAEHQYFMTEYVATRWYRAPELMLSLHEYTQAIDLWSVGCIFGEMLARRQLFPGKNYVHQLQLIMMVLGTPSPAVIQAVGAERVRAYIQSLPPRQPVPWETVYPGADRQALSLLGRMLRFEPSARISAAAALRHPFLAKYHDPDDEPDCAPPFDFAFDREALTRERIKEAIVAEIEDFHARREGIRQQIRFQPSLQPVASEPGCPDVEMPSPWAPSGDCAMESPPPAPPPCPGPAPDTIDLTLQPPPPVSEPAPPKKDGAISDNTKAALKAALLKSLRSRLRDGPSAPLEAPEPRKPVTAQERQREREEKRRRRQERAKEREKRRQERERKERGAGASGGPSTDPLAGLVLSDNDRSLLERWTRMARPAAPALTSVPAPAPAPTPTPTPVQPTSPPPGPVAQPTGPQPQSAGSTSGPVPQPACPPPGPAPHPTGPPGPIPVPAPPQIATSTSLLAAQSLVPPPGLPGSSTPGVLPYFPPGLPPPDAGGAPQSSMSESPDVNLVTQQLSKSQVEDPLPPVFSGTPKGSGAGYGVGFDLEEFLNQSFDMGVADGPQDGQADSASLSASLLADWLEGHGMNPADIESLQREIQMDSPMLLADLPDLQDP

FGR = FGR (Homo sapiens, UniProt P09769); assay: biochemical; parameters: KINOMEscan active-site-directed competition binding panel, 468 kinases, percent of DMSO control at 1 uM; conditions: KINOMEscan binding, percent of DMSO control; read-out: Ctrl%
HPK1 = biological target: T2, HPK1 (Homo sapiens, UniProt Q92918); assay: biochemical; parameters: KINOMEscan active-site-directed competition binding panel, 468 kinases, percent of DMSO control at 1 uM; conditions: KINOMEscan binding, percent of DMSO control; read-out: Ctrl%
T2 construct: gene MAP4K1

CAMK2G = CAMK2G (Homo sapiens, UniProt Q13555); assay: biochemical; parameters: KINOMEscan active-site-directed competition binding panel, 468 kinases, percent of DMSO control at 1 uM; conditions: KINOMEscan binding, percent of DMSO control; read-out: Ctrl%
PRKCQ = PRKCQ (Homo sapiens, UniProt Q04759); assay: biochemical; parameters: KINOMEscan active-site-directed competition binding panel, 468 kinases, percent of DMSO control at 1 uM; conditions: KINOMEscan binding, percent of DMSO control; read-out: Ctrl%
MLK3 = biological target: T3, MLK3 (Homo sapiens, UniProt Q16584); assay: biochemical; parameters: KINOMEscan active-site-directed competition binding panel, 468 kinases, percent of DMSO control at 1 uM; conditions: KINOMEscan binding, percent of DMSO control; read-out: Ctrl%
T3 construct: gene MAP3K11
T3 sequence (Q16584 whole entry): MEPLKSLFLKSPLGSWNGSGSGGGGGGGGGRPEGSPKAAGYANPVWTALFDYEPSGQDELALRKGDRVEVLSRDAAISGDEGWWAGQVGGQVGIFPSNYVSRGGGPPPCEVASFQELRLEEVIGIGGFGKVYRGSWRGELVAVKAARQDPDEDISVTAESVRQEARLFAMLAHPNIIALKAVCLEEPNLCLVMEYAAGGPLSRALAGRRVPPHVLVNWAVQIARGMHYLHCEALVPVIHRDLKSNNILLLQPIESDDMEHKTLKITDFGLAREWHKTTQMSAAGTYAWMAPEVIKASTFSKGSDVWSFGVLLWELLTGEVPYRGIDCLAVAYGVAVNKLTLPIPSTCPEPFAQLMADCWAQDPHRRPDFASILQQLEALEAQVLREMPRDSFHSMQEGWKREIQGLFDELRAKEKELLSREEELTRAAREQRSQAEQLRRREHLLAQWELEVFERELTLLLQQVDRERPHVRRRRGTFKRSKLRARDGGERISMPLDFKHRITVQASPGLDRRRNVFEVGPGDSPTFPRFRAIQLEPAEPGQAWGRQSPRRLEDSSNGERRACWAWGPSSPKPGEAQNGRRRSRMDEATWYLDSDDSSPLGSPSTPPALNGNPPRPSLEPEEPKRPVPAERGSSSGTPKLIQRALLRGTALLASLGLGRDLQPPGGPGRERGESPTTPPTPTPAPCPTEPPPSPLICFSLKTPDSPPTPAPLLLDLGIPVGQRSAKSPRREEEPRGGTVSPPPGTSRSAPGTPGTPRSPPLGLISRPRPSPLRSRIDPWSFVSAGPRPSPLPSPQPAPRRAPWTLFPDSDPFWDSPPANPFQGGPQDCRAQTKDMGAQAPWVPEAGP

PIK3CA(I800L) = PIK3CA(I800L) (Homo sapiens, UniProt P42336, I800L); assay: biochemical; parameters: KINOMEscan active-site-directed competition binding panel, 468 kinases, percent of DMSO control at 1 uM; conditions: KINOMEscan binding, percent of DMSO control; read-out: Ctrl%
WEE2 = WEE2 (Homo sapiens, UniProt P0C1S8); assay: biochemical; parameters: KINOMEscan active-site-directed competition binding panel, 468 kinases, percent of DMSO control at 1 uM; conditions: KINOMEscan binding, percent of DMSO control; read-out: Ctrl%
DCAMKL1 = biological target: T4, DCAMKL1 (Homo sapiens, UniProt O15075); assay: biochemical; parameters: KINOMEscan active-site-directed competition binding panel, 468 kinases, percent of DMSO control at 1 uM; conditions: KINOMEscan binding, percent of DMSO control; read-out: Ctrl%
T4 construct: gene DCLK1

PLK3 = PLK3 (Homo sapiens, UniProt Q9H4B4); assay: biochemical; parameters: KINOMEscan active-site-directed competition binding panel, 468 kinases, percent of DMSO control at 1 uM; conditions: KINOMEscan binding, percent of DMSO control; read-out: Ctrl%
KIT(D816V) = KIT(D816V) (Homo sapiens, UniProt P10721, D816V); assay: biochemical; parameters: KINOMEscan active-site-directed competition binding panel, 468 kinases, percent of DMSO control at 1 uM; conditions: KINOMEscan binding, percent of DMSO control; read-out: Ctrl%
ZAK = biological target: T5, ZAK (Homo sapiens, UniProt Q9NYL2); assay: biochemical; parameters: KINOMEscan active-site-directed competition binding panel, 468 kinases, percent of DMSO control at 1 uM; conditions: KINOMEscan binding, percent of DMSO control; read-out: Ctrl%
T5 construct: gene MAP3K20

INSR = INSR (Homo sapiens, UniProt P06213); assay: biochemical; parameters: KINOMEscan active-site-directed competition binding panel, 468 kinases, percent of DMSO control at 1 uM; conditions: KINOMEscan binding, percent of DMSO control; read-out: Ctrl%
GRK2 = GRK2 (Homo sapiens, UniProt P25098); assay: biochemical; parameters: KINOMEscan active-site-directed competition binding panel, 468 kinases, percent of DMSO control at 1 uM; conditions: KINOMEscan binding, percent of DMSO control; read-out: Ctrl%
GSK3B = GSK3B (Homo sapiens, UniProt P49841); assay: biochemical; parameters: KINOMEscan active-site-directed competition binding panel, 468 kinases, percent of DMSO control at 1 uM; conditions: KINOMEscan binding, percent of DMSO control; read-out: Ctrl%
Sequence of GSK3B (P49841 whole entry): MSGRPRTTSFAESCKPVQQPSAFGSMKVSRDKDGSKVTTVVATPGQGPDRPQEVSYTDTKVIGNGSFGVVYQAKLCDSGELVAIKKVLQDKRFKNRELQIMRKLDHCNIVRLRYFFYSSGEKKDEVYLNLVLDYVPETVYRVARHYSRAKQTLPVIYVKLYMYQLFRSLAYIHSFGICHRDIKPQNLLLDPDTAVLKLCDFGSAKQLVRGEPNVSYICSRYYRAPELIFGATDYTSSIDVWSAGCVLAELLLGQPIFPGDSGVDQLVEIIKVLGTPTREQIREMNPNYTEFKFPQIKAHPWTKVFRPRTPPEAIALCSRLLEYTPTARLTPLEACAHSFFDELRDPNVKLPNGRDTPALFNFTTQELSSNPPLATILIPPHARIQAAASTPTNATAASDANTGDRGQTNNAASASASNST

PRKCE = PRKCE (Homo sapiens, UniProt Q02156); assay: biochemical; parameters: KINOMEscan active-site-directed competition binding panel, 468 kinases, percent of DMSO control at 1 uM; conditions: KINOMEscan binding, percent of DMSO control; read-out: Ctrl%
Sequence of PRKCE (Q02156 whole entry): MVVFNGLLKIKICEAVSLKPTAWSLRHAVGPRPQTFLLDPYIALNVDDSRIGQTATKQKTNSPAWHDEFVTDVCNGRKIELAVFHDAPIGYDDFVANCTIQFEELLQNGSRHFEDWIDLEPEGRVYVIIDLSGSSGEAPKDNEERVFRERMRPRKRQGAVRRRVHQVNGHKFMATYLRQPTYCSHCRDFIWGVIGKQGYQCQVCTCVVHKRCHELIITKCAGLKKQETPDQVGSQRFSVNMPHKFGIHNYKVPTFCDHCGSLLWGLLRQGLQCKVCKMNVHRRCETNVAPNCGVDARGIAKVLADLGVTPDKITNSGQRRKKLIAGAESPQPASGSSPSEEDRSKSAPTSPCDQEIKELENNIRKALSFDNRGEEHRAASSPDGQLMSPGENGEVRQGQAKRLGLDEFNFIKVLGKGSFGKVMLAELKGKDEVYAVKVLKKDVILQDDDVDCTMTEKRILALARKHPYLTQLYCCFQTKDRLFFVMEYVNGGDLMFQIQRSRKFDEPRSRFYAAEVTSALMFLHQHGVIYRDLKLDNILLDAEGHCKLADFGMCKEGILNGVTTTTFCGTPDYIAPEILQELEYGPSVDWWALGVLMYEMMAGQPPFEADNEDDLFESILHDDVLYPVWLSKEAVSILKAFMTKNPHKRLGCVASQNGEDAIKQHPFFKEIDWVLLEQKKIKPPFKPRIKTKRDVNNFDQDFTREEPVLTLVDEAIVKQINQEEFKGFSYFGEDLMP

CSNK2A2 = CSNK2A2 (Homo sapiens, UniProt P19784); assay: biochemical; parameters: KINOMEscan active-site-directed competition binding panel, 468 kinases, percent of DMSO control at 1 uM; conditions: KINOMEscan binding, percent of DMSO control; read-out: Ctrl%
MARK1 = MARK1 (Homo sapiens, UniProt Q9P0L2); assay: biochemical; parameters: KINOMEscan active-site-directed competition binding panel, 468 kinases, percent of DMSO control at 1 uM; conditions: KINOMEscan binding, percent of DMSO control; read-out: Ctrl%
INSRR = INSRR (Homo sapiens, UniProt P14616); assay: biochemical; parameters: KINOMEscan active-site-directed competition binding panel, 468 kinases, percent of DMSO control at 1 uM; conditions: KINOMEscan binding, percent of DMSO control; read-out: Ctrl%
Sequence of INSRR (P14616 whole entry): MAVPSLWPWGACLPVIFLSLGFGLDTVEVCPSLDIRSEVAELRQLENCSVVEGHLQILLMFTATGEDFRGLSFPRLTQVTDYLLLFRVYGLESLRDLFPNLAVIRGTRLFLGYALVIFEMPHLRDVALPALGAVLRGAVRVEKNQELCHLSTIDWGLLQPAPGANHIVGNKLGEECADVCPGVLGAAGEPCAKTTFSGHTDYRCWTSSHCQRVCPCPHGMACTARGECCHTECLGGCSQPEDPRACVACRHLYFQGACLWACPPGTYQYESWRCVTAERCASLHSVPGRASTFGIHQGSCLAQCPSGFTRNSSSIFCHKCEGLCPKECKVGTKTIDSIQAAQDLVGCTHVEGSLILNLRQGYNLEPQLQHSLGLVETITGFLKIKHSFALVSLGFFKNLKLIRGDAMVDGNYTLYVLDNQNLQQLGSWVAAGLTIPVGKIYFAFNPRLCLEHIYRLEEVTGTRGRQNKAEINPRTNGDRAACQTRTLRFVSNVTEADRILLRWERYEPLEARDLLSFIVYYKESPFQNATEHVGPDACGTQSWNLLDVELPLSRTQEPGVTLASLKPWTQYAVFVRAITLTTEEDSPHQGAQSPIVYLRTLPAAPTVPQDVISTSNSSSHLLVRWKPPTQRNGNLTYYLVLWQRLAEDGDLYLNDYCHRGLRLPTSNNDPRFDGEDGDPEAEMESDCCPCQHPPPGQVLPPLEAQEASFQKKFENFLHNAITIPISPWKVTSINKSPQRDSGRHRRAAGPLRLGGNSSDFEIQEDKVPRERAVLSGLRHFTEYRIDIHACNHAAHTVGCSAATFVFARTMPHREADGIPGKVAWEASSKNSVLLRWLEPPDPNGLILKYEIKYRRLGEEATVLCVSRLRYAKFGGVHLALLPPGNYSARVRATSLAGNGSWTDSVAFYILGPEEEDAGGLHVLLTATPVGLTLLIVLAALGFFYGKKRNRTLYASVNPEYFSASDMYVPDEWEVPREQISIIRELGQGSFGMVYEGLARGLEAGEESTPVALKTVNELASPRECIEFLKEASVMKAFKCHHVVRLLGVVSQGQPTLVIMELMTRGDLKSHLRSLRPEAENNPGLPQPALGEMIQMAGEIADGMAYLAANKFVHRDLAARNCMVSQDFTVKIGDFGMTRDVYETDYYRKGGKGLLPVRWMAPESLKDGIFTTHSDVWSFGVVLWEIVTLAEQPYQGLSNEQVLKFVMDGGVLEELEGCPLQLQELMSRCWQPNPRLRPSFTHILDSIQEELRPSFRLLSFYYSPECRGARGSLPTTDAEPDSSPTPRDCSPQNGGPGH

FGFR3(G697C) = FGFR3(G697C) (Homo sapiens, UniProt P22607, G697C); assay: biochemical; parameters: KINOMEscan active-site-directed competition binding panel, 468 kinases, percent of DMSO control at 1 uM; conditions: KINOMEscan binding, percent of DMSO control; read-out: Ctrl%
MLK2 = biological target: T6, MLK2 (Homo sapiens, UniProt Q02779); assay: biochemical; parameters: KINOMEscan active-site-directed competition binding panel, 468 kinases, percent of DMSO control at 1 uM; conditions: KINOMEscan binding, percent of DMSO control; read-out: Ctrl%
T6 construct: gene MAP3K10
T6 sequence (Q02779 whole entry): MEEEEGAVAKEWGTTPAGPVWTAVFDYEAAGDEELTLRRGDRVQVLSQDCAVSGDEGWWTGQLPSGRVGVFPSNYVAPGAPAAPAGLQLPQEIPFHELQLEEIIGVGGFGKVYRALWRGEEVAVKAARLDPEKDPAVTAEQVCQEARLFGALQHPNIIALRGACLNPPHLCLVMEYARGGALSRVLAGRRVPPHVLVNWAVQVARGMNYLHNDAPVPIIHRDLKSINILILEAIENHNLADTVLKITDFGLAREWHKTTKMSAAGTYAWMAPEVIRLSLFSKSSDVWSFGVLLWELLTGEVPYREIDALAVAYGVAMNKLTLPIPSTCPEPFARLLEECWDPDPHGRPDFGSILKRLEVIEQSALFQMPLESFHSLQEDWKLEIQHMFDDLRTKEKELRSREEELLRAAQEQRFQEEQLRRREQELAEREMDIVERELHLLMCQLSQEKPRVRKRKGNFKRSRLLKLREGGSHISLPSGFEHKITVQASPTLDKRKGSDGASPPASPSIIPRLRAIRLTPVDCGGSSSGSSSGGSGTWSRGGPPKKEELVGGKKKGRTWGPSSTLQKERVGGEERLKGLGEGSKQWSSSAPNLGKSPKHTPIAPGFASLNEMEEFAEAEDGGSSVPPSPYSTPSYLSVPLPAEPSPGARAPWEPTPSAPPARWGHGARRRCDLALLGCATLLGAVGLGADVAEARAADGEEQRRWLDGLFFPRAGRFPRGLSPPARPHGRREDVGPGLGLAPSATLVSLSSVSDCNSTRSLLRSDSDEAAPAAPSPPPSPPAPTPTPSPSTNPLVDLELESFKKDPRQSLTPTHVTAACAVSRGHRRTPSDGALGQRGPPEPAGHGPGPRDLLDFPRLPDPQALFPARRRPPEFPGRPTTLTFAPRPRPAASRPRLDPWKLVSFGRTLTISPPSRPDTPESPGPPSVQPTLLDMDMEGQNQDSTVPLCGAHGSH

TRPM6 = TRPM6 (Homo sapiens, UniProt Q9BX84); assay: biochemical; parameters: KINOMEscan active-site-directed competition binding panel, 468 kinases, percent of DMSO control at 1 uM; conditions: KINOMEscan binding, percent of DMSO control; read-out: Ctrl%

## Cc1ccc(NC(=O)c2cccc(C(F)(F)F)c2)cc1Nc1cc(-c2cccnc2)nc2[nH]ccc12 [HZX-02-059]
RAF1
  remaining binding at 1 µM: 0.95%
FGFR2
  remaining binding at 1 µM: 95%
ERK5
  remaining binding at 1 µM: 99%
FGR
  remaining binding at 1 µM: 92%
HPK1
  remaining binding at 1 µM: 72%
CAMK2G
  remaining binding at 1 µM: 97%
PRKCQ
  remaining binding at 1 µM: 88%
MLK3
  remaining binding at 1 µM: 87%
PIK3CA(I800L)
  remaining binding at 1 µM: 81%
WEE2
  remaining binding at 1 µM: 100%
DCAMKL1
  remaining binding at 1 µM: 93%
PLK3
  remaining binding at 1 µM: 93%
KIT(D816V)
  remaining binding at 1 µM: 93%
ZAK
  remaining binding at 1 µM: 17%
INSR
  remaining binding at 1 µM: 100%
GRK2
  remaining binding at 1 µM: 100%
GSK3B
  remaining binding at 1 µM: 83%
PRKCE
  remaining binding at 1 µM: 96%
CSNK2A2
  remaining binding at 1 µM: 100%
MARK1
  remaining binding at 1 µM: 94%
INSRR
  remaining binding at 1 µM: 100%
FGFR3(G697C)
  remaining binding at 1 µM: 100%
MLK2
  remaining binding at 1 µM: 97%
TRPM6
  remaining binding at 1 µM: 50%
